Paper PMC12677843, “Multidisciplinary Preclinical Investigations on Ferrocenyl, Ruthenocenyl, and Benzyl Derivatives of Niridazole as New Drug Candidates against Schistosomiasis” (Chemmedchem, 2025)

What was measured:
[1] = system: juvenile S. mansoni; experiment: In vitro drug sensitivity assay on juvenile S. mansoni; assay type: cell-based, Schistosoma mansoni; details: Schistosoma mansoni; 72 h incubation, 37 °C, 5% CO2
Description: Juvenile worms were gained through cultivation of NTS as previously described. 10 In short, NTS were obtained as described above, then directly after the mechanical transformation process the newly transformed schistosomula were placed in a special culturing medium. The culture medium consists of Panserin 401, w: L-Glutamine, serum free all-round medium (Pan Biotech, Aidenbach, Germany) supplemented with 20 % human serum and 500 U/mL penicillin, […] streptomycin (LuBioScience, Switzerland). 96-well transparent polystyrene flat bottom plates were used for the in vitro growth procedure, with 40 to 60 NTS per well in 100 µL culture medium. The bordering wells of the plate were filled solely with medium to counteract evaporation and to keep the humidity as steady as possible. The plates were incubated for 21 days at 5 % CO2 and at 37 °C, with regular medium changes every 3 to 4 days. After the 21 days culturing period, the schistosomulae developed into juveniles. For the drug sensitivity assay, juvenile worms were incubated over 72 h (5 % CO 2 and 37 °C) with the test compound in the same medium, as used for the culturing process. In a 96-well plate, 250 µL medium containing the test compound and six juvenile worms, ideally of both sexes were placed in each well. All compounds were tested twice independently at 50, 10, 5 and 1 µM in duplicates. The viability of the worms was evaluated microscopically after 24, 48 and 72 h of continuous drug exposure using the same phenotypic screening method as described before. […]

[2] = system: SH-SY5Y neuroblastoma cells; experiment: XTT mitochondrial activity/cell viability assay, SH-SY5Y; assay type: cell-based; details: 20 µM, 24 h, serum-free media, vs DMSO control (0.2%), mean
Description: The safety profile of niridazole and its organometallic derivatives was evaluated using two different cell lines. The XTT mitochondrial activity assay reflecting cell viability was performed in the hepatocyte‐derived carcinoma cell line HUH7 and in the human neuroblastoma cell line SH‐SY5Y at 20 µM for 24 h. The SYTOX cell viability assay was subsequently performed on the SH‐SY5Y cell line, once the cell line was identified to be more sensitive to the treatment conditions.
Figure 5 XTT assay. Results of the XTT activity/viability assay are shown in A for HUH7 and B for SHSY5Y cells. […]
Additionally, 2 wells with negative controls containing only DMSO and the culture medium were included. After an incubation period of 72 h at 37 °C and 5 % CO 2, the worms were microscopically evaluated. The drug effect was determined 24, 48 and 72 h post-exposure based on the phenotype of the adult worms, using a viability scale ranging from three referring to viable, motile worms with no change in their tegument to zero standing for the death of the worms. […]
(§1) Following 24 h of incubation, 12.5 μL of an XTT/phenazine methosulfate (PMS) (XTT Sigma Aldrich cat X4626, PMS Serva CAT: 3203) 0.02solution (1 mg/mL XTT and 7.5 μg/mL PMS) was added to each well. […] Mean ± SD was determined from three independent experiments, each performed in quintuplicate. […]

[3] = system: HUH7 hepatocarcinoma cells; experiment: XTT mitochondrial activity/cell viability assay, HUH7; assay type: cell-based; details: 20 µM, 24 h, serum-free media, vs DMSO control (0.2%)
Description: Results were normalized to the DMSO control. […]
to, so that all test concentrations contained always the same amount of DMSO.
Additionally, 2 wells with negative controls containing only DMSO and the culture medium were included. After an incubation period of 72 h at 37 °C and 5 % CO 2, the worms were microscopically evaluated. The drug effect was determined 24, 48 and 72 h post-exposure based on the phenotype of the adult worms, using a viability scale ranging from three referring to viable, motile worms with no change in their tegument to zero standing for the death of the worms.
All described in vitro studies with mice involved, were conducted at the Swiss Tropical and Public Health Institute, first in Basel, later in Allschwil, and had the approval by the corresponding veterinary authorities of the Canton Basel-Stadt (permit no. 2070) […]
as §1, with “well. Absorbance was measured using a microplate reader (Biotek Synergy HT) at 450 nm (signal) and 650 nm (background), 2 h after the addition of the XTT/PMS solution.” for “well.”
The cytotoxic potential was additionally evaluated using the staining-based SYTOX viability assay. […]

O=C1NCCN1c1ncc([N+](=O)[O-])s1 [Niridazole, niridazole]
EC50 [1]: 1800 nM | reduction of XTT signal in SH-SY5Y cells [2]: no signs of toxicity | XTT activity in HUH7 cells compared to DMSO control [3]: no signs of toxicity
